The values that follow come from paper PMC3766633 (Biomaterials, 2013).

The conditions of series [1]: cell culture and animal studies; cited from earlier work.
In the next series the test system is dogs. The conditions noted are these: dog, in vivo; cited from earlier work.
For series [2], the system named is male Wistar rats. Put plainly: Subcutaneous injection, hypoglycemic effect. The class given is in vivo, rat. Conditions: 1 IU/kg.
In series [3] the test system is male Wistar rats. Nature of the series: In situ ileal loop absorption experiment, hypoglycemic effect. Conditions: 50 IU/kg.
Series [4] in a line: Precipitation / aggregation on mixing with LMWP during coupling. The class given is physicochemical. The conditions noted are these: mixing with LMWP or LMWP-SH during the coupling process, observation.

Entries after “also recorded” stand apart in the source; their conditions may differ.

“VSRRRRRRGGRRRR [LMWP, Low Molecular Weight Protamine]”: the “cell internalization potency relative to TAT” value in series [1] is listed as “equivalent”. In addition, in the series on dogs, the complement activation entry was “only minor” and the hypotensive responses result was “non-detectable”.
Regarding “Insulin-Polyethylene Glycol-Low Molecular Weight Protamine Conjugate [Insulin-PEG-LMWP]”, the “BGL level maintained till the end of the study (10 h)” value in the series on male Wistar rats [2] (s.c.) was “around 70%”. Further, the “reduction of BGL two hours following subcutaneous injection” value in the series with male Wistar rats [2] (s.c., 2 h) was “about 30%”. Besides, the “bioactivity of insulin after conjugation with LMWP” value in the series with male Wistar rats [2] (s.c., compared with s.c. insulin) is reported as “not to be impaired”. Further, the “transporting efficiency, times higher than that of native insulin, basolateral-to-apical flux” value with Caco-2 cell monolayer (Caco-2) is recorded as 4.09 times. Moreover, in the series on Caco-2 cell monolayer (Caco-2, pH 7.4), the “Peff (permeability coefficient), apical-to-basolateral” value is reported as 5.33±0.03 ×10^-6 cm/s and the “Peff (permeability coefficient), basolateral-to-apical” value is on record as 4.95±0.15 ×10^-6 cm/s. The “drop of BGL soon after administration” value in the series with male Wistar rats [3] amounted to 70%. Also, in the series on male Wistar rats [3] (male Wistar rats, N=6), the “Tmin (time to reach BGLmin)” value was 6 h. The “BGL level remaining after the minimum” value in the series with male Wistar rats [3] (over a period of 10 hours, % of initial value) is recorded as 30–45%.
As for “Insulin-Polyethylene Glycol-Maleimide [Insulin-PEG-MAL]”, the “appearance on mixing / reaction with LMWP (precipitation of insoluble complexes)” value in series [4] was “transparent reaction mixture”.
Consider insulin, for which the “time of return of BGL to the basal level (~100%)” value in the series on male Wistar rats [2] (s.c.) came to 6 h. In addition, the “BGLmin (minimum blood glucose level)” value with male Wistar rats [2] (sc., male Wistar rats, % of initial value, N=6) is on record as 65.75%. Further, the “Tmin (time to reach BGLmin)” value in the series on male Wistar rats [2] (sc., male Wistar rats, N=6) turned out to be 1 h. Further, the “AAC0→10h (area above the curve)” value turned out to be 10547 %min in the series on male Wistar rats [2] (sc., male Wistar rats, trapezoidal method, N=6) and 2751 %min with male Wistar rats [3] (male Wistar rats, trapezoidal method, N=6). In addition, the “PA0→10h (relative pharmacological availability)” value with male Wistar rats [2] (sc., reference route, N=6) stood at 100.00%; with male Wistar rats [3] (relative to s.c. insulin 1 IU/kg, male Wistar rats, N=6) it was 0.52%. In addition, the “appearance on mixing / reaction with LMWP (precipitation of insoluble complexes)” value in series [4] is “significant precipitation”. Further, the “hypoglycemic effect (decrease in BGL compared with PBS negative control)” value with male Wistar rats [3] (male Wistar rats) is reported as “no statistically significant decrease; also recorded: virtually no hypoglycemic effects”.
